Data reported in US8252572B2, “Use of islet glucose-6-phosphatase related protein as a diagnostic tool and therapeutic target for autoimmune diabetes” (priority 2003, dated 2012).

What was measured:
NY8.3 CD8 T-cell clone = details: cited from earlier work
[1] = system: CD8 positive cells from the whole pancreas of NOD mice; experiment: MHC class I tetramer binding to pancreatic mononuclear cells (FACS); type: cell-based, NOD mouse
Excerpt: Cells were isolated from collagenase digested mouse pancreas by gradient centrifugation and subject to 3 color FACS analysis using antibodies to CD45, CD8 and PE-streptavidin conjugated tetramers carrying peptides derived from IGRP. The gated (R1) population were 95% CD45 positive and composed of 12.5% CD8 cells.
MHC class I tetramers were generated using the NIH tetramer facility. These were loaded with a series of peptides including the native mouse IGRP peptide (VYLKTNVFL (SEQ ID NO.: 6); peptide C, FIG. 4) corresponding to the NRP-V7 mimeotope (KYNKANVFL (SEQ ID NO.: 7)) that stimulates the NY8.3 CD8 T-cell clone. A procedure was developed for the isolation of mononuclear cells from the whole pancreas of NOD mice yielding approximately 0.5-1×10^6 CD45 positive cells (lymphocytes) per mouse (12-16 wk females) for tetramer binding assays (FIG. 4). The lymphocyte population contained 10-15% CD8 positive cells of which 8% bound the native peptide tetramer. These assays confirm the remarkable finding that a major proportion of the CD8 cells in the NOD pancreas target one specific IGRP epitope. The procedure developed here represents a technical advance on previous tetramer studies of activated NRP reactive T-cell in NOD mice which required up to 40 animals for a single experiment and amplification of islet-derived T-cells for 7-9 days in the presence of IL-2.

[2] = system: mixed lymphocyte preparations of pre-diabetic 12 week old female NOD mice; experiment: T-cell proliferative responses to recombinant antigens (3H thymidine); type: cell-based, NOD mouse; details: for T-cell proliferative response (in words): recombinant antigens as β-galactosidase fusion proteins, NOD lymphocytes
Procedure: Lymphocytes prepared from pancreatic draining lymph nodes were mixed with splenocytes from the same animal and incubated for 3 days (500×10^3 cells) in Click's medium with […] NOD mouse serum 50 μM mercaptoethanol and the indicated recombinant antigens that were generated as fusion proteins with β-galactosidase in the pUEX vector. Cultures were pulsed for 16 h with ^3H thymidine prior to harvest.
T-cell proliferative responses to recombinant IGRP (3-100 μg/ml) were observed from mixed lymphocyte preparations of pre-diabetic 12 week old female NOD mice (SImax=10).

Molecule: KYNKANVFL (SEQ ID NO.: 7) (artificial Mus sp.) [NRP-V7, mimeotope that stimulates the NY8.3 CD8 T-cell clone]
- stimulation of T-cell clone (in words) (NY8.3 CD8 T-cell clone): stimulates

Molecule: VYLKTNVFL (SEQ ID NO.: 6) (listed as Mus sp.) [peptide C, native mouse IGRP peptide, cognate peptide of the NY8.3 clone]
- proportion of CD8 positive cells that bound the tetramer ([1]; K^d tetramer loaded with peptide, pancreatic lymphocytes of 12-16 wk female NOD mice): 8%
- tetramer staining of pancreatic CD8 cells (in words) ([1]; PE-streptavidin conjugated tetramers carrying peptides derived from IGRP, 3 color FACS, FIG. 4): significant proportion bound

Molecule: β-galactosidase: the fusion partner, used as control antigen [reference compound]
- T-cell proliferative response (in words) [2]: minimal response

B1: G6Pase: equivalent β-galactosidase fusion construct with liver glucose-6-phosphatase (protein, UniProt P35575 1-357, looked up)
Glucose-6-phosphatase …: MEEGMNVLHDFGIQSTHYLQVNYQDSQDWFILVSVIADLRNAFYVLFPIWFHLQEAVGIKLLWVAVIGDWLNLVFKWILFGQRPYWWVLDTDYYSNTSVPLIKQFPVTCETGPGSPSGHAMGTAGVYYVMVTSTLSIFQGKIKPTYRFRCLNVILWLGFWAVQLNVCLSRIYLAAHFPHQVVAGVLSGIAVAETFSHIHSIYNASLKKYFLITFFLFSFAIGFYLLLKGLGVDLLWTLEKAQRWCEQPEWVHIDTTPFASLLKNLGTLFGLGLALNSSMYRESCKGKLSKWLPFRLSSIVASLVLLHVFDSLKPPSQVELVFYVLSFCKSAVVPLASVSVIPYCLAQVLGQPHKKSL
- T-cell proliferative response (in words) [2]: minimal response

B2: UGRP: equivalent construct with ubiquitously expressed G6Pase related protein (protein, UniProt Q6NSQ9 1-346, looked up)
Glucose-6-phosphatase 3: MESTLSAGIIMAEALQNRLPGLENMWLWVTFLGDPKNLFQFCFPAAYYASRRLGISVLWITFIAEWLNLVFKWFLFGDRPFWWVHESGYSTQTPIQIHQFPSSCETGPGSPSGHCMITGAALWPVMTAISSQVASRSRSPWVRVIPGLAYCTFLLAVGLSRVFLLAHFPHQVLGGLIVGAALGWLMSPRVPMERELSFYGLTALALMLGASLMYWTLFTLGLDLSWSINLASKWCERPEWVHMDSRPFASLSRDSGSALGLGIALHTPCYAQIRRAHLGNGQKIACFVLAMGLLVFLEWLGYPPQISLFYIFNFLKYTLWPCLVLALVPWVVHTLSDQEAPPIRSS
- T-cell proliferative response (in words) [2]: minimal response

B3: recombinant IGRP: recombinant islet glucose-6-phosphatase related protein generated as fusion protein with β-galactosidase in the pUEX vector (protein, UniProt Q9Z186 1-355, looked up)
Glucose-6-phosphatase 2: MDFLHRSGVLIIHHLQEDYRTYYGFLNFMSNVGDPRNIFSIYFPLWFQLNQNVGTKMIWVAVIGDWFNLIFKWILFGHRPYWWIQETEIYPNHSSPCLEQFPTTCETGPGSPSGHAMGSSCVWYVMVTAALSYTISRMEESSVTLHRLTWSFLWSVFWLIQISVCISRVFIATHFPHQVILGVIGGMLVAEAFEHTPGVHMASLSVYLKTNVFLFLFALGFYLLLRLFGIDLLWSVPIAKKWCANPDWIHIDSTPFAGLVRNLGVLFGLGFAINSEMFLRSCQGENGTKPSFRLLCALTSLTTMQLYRFIKIPTHAEPLFYLLSFCKSASIPLMVVALIPYCVHMLMRPGDKKTK
- T-cell proliferative response, SImax ([2]; recombinant IGRP 3-100 μg/ml, β-galactosidase fusion protein, 3 days culture, 16 h 3H thymidine pulse): 10
